Data: patent US6924414B2, “Muir-torre-like syndrome in Fhit deficient mice” (Thomas Jefferson University, priority 2000, dated 2005)
“And” between values parts separate entries of the source, which are not always exact repeats. Equal entries are not always repeated. “Also recorded” adds a separate entry of the source. Marks after values point to notes of the source that are not given here.

What was measured:
[1] = system: esophageal and forestomach tumors; conditions: administered by gavage or in the drinking water; cited from earlier work
Fhit +/+ mice = test: Carcinogenicity study: NMBA tumor induction in Fhit +/+ mice; assay type: in vivo, mouse (C57BL/6J X 129/SvJ) F1
Description: (§1) (C57BL/6J X 129/SvJ) F1 mice (B6129F1s) that were Fhit +/+ or +/− were produced. 18 Fhit +/+ and 22 Fhit +/− mice (30-46 weeks) were given 8 intragastric doses of NMBA (Ash Stevens, Detroit, Mich.) over the course of 3 weeks at 2 mg/kg body weight. About half the mice were sacrificed six weeks after the final NMBA dose and the remaining mice at ten weeks. Tumor incidence differences were analyzed by two-tailed Fisher's exact test (Armitage and Berry, 1987, Statistical Methods in Medical Research, 2nd Ed., Blackwell Scientific, Oxford). For comparison, four untreated Fhit +/− mice (54-59 weeks old) and one untreated Fhit +/+ mouse (59 weeks old) were similarly autopsied. At autopsy, whole esophagi and stomachs were removed and opened longitudinally. Other tissues with apparent tumors were also examined. The number of animals bearing tumors in the esophagus, forestomach, squamocolumnar junction with the glandular stomach (SCJ) and other tissues were scored. Tissues were fixed in buffered formalin and examined histologically after hematoxylin and eosin (H&E) staining for the presence of hyperkeratosis, parakeratosis, dysplasia, papillomas, adenomas and carcinomas.

Fhit +/− mice = test: Carcinogenicity study: NMBA tumor induction in Fhit +/− mice; assay type: in vivo, mouse (C57BL/6J X 129/SvJ) F1
Description: as §1

Fhit exons 4 through 9 = test: Fhit sequence analysis of NMBA-induced tumors; parameters: species or system mouse; conditions: DNA from sebaceous tumors of mice 21, 27, 31 and squamous papillomas of mice 25, 27
From the text: Primer pairs flanking each of the human FHIT exons (Druck et al., […], Cancer Res. 57:504-512) and the mouse FHIT coding exons were used in PCR amplification of DNA from MTS cases or mouse tumors, respectively. Primer pairs surrounding the mouse FHIT exons were previously published (Pekarsky et al., 1998, Cancer Res. 58:3401-3408) for exons 5 and 6 or newly designed […]
The products were purified with a PCR purification kit (Qiagen) before sequencing using Taq DyeDeoxy Terminator Cycle Sequencing Kits (ABI). Sequencing reaction products were electrophoresed and recorded on a 377 DNA sequencer (ABI). Southern Blot Analysis

[2] = Fhit +/+, individual mice, 10 weeks after NMBA, T = tumors
[3] = Fhit +/−, individual mice, 10 weeks after NMBA, T = tumors

N-nitrosomethylbenzylamine [NMBA]
Tumor induction [1]: induce both esophageal and forestomach tumors
Fraction of tumor bearing animals, Fore stomach (Fhit +/+ mice; 6 wk post-treatment, Fhit +/+): 1/10
Fraction of tumor bearing animals, SCJ (Fhit +/+ mice; 6 wk post-treatment, Fhit +/+): 0/10
Tumor Bearing Mice (Fhit +/+ mice; 6 wk post-treatment, Fhit +/+): 2/10
Fraction of tumor bearing animals, Esoph (Fhit +/+ mice; 6 wk post-treatment, Fhit +/+, number of mice with tumors/number of mice, 8 intragastric doses 2 mg/kg): 1/10
Fraction of tumor bearing animals, Esoph (Fhit +/+ mice; 10 wk post-treatment, Fhit +/+): 0/8
Fraction of tumor bearing animals, Fore stomach (Fhit +/+ mice; 10 wk post-treatment, Fhit +/+): 1/8
Fraction of tumor bearing animals, SCJ (Fhit +/+ mice; 10 wk post-treatment, Fhit +/+): 1/8
Fraction of tumor bearing animals, Sebaceous (Fhit +/+ mice; 10 wk post-treatment, Fhit +/+): 0/8
Tumor Bearing Mice (Fhit +/+ mice; 10 wk post-treatment, Fhit +/+): 2/8
Extragastric tumors (Fhit +/+ mice; Fhit +/+ mice): not observed
Comments (by histology) (Fhit +/+ mice; Fhit +/+, individual mice, 10 weeks after NMBA): sq papillomas; also recorded: papillary hyperplasia, esophagus; also recorded: adenoma
Phenotype Esoph. (Fhit +/+ mice; [2]): thick
Phenotype Forestomach (Fhit +/+ mice; [2]): thick; also recorded: sm. T
Phenotype SCJ (Fhit +/+ mice; [2]): thick and 7T+3 mm
body wt. (amount of wt. change during the experiment) (Fhit +/+ mice; Fhit +/+, individual mice, 10 weeks after NMBA, given with ↑): ↑1 g and ↑4 g (3×) and ↑6 g and ↑3 g (2×) and ↑2 g
Mice developing sebaceous tumors (Fhit +/+ mice; NMBA treated Fhit +/+ mice): none
Esophageal squamous papilloma by histological examination (Fhit +/+ mice; six weeks after NMBA, Fhit +/+): 1/10
Mice showing a very small tumor of the esophagus or forestomach on inspection (Fhit +/+ mice; six weeks after treatment, Fhit +/+): two of ten
Mice with tumors (Fhit +/+ mice; six weeks post NMBA, Fhit +/+, histology): 20%
Tumor burden (mice exhibiting tumors) (Fhit +/+ mice; ten weeks post NMBA, Fhit +/+): 25%
Mice exhibiting tumors on inspection (Fhit +/+ mice; ten weeks, Fhit +/+): two of eight
Fraction of tumor bearing animals, Fore stomach (Fhit +/− mice; 6 wk post-treatment, Fhit +/−): 5/10
Fraction of tumor bearing animals, SCJ (Fhit +/− mice; 6 wk post-treatment, Fhit +/−): 4/10
Tumor Bearing Mice (Fhit +/− mice; 6 wk post-treatment, Fhit +/−): 7/10
Fraction of tumor bearing animals, Esoph (Fhit +/− mice; 6 wk post-treatment, Fhit +/−, 1 esophagus showed dysplasia): 0/10^b
Fraction of tumor bearing animals, Esoph (Fhit +/− mice; 10 wk post-treatment, Fhit +/−): 2/12
Fraction of tumor bearing animals, Fore stomach (Fhit +/− mice; 10 wk post-treatment, Fhit +/−): 10/12
Fraction of tumor bearing animals, SCJ (Fhit +/− mice; 10 wk post-treatment, Fhit +/−): 5/12
Fraction of tumor bearing animals, Sebaceous (Fhit +/− mice; 10 wk post-treatment, Fhit +/−): 7/12
Tumor Bearing Mice (Fhit +/− mice; 10 wk post-treatment, Fhit +/−): 12/12
Comments (by histology) (Fhit +/− mice; Fhit +/−, individual mice, 10 weeks after NMBA): sq. carcinoma forestomach, sq. pap. SCJ; also recorded: sq. pap. forestomach, Barretts-like gastric mucosa SCJ; also recorded: sq. pap. and adenoma forestomach; also recorded: sq. pap. and sq. carcinoma forestomach; also recorded: sq. pap. esoph, forestomach, SCJ; also recorded: sebaceous adnexal tumor; also recorded: sq. pap. esoph and forestomach, seb. tumor; also recorded: sq. pap. forestomach, sebaccous tumor; also recorded: hyperplastic gastric mucosa, SCJ sq. pap. seb. tumor; also recorded: forestomach sq. papillomas; sebaceous tumor
Phenotype Forestomach (Fhit +/− mice; [3]): 2T and few sm. T and multiple T (3×) and T.2-3 mm
Phenotype SCJ (Fhit +/− mice; [3]): few T; also recorded: multiple T
body wt. (amount of wt. change during the experiment) (Fhit +/− mice; Fhit +/−, individual mice, 10 weeks after NMBA, given with ↑): ↑3 g (2×) and ↑2 g (3×) and ↑4 g (4×) and ↑8 g (2×) and ↑6 g
Mice with large (>5×5 mm) sebaceous tumors (Fhit +/− mice; NMBA treated Fhit +/− mice under 1 yr. of age): 5 of 12
Mice with one or more subcutis tumors in abdominal, mammary or axial area on autopsy (Fhit +/− mice; autopsy at 10 weeks, Fhit +/−): more than 50%
Mice developing a spectrum of visceral and skin tumors (Fhit +/− mice; by ten weeks after NMBA exposure, Fhit +/−): all
Mice showing tumors in the subcutis of the abdomen (visible before autopsy) (Fhit +/− mice; by ten weeks after the final dose, Fhit +/−): three
Mice showing one or more small tumors on inspection of whole esophagus and stomach (Fhit +/− mice; six weeks after treatment, Fhit +/−): seven of ten
Mice with tumors (Fhit +/− mice; six weeks post NMBA, Fhit +/−, histology): 70%
Tumor burden (mice exhibiting tumors) (Fhit +/− mice; ten weeks post NMBA, Fhit +/−): 100%
Mice showing apparent tumors in forestomach, squamocolumnar junction and/or other tissues (Fhit +/− mice; ten weeks, Fhit +/−, inspection): eleven of twelve
NMBA-induced mutations within Fhit exons 4 through 9 (Fhit exons 4 through 9): No mutations were detected
